Patent US20240156757A1, “CXCL8 INHIBITOR AND PHARMACEUTICAL COMPOSITION THEREOF FOR USE IN THE TREATMENT OF SEIZURES” (DOMPE' FARMACEUTICI SPA, priority 2021, published 2024)

What was measured:
acetylated alpha-tubulin = test: Acetylated alpha-tubulin immunostaining in hippocampus after SE; assay type: in vivo, C57BL6/N male mice; settings: as assessed 48 h and 72 h after SE; 7.5 mg/h/kg minipump; reparixin n=7, vehicle n=4
Procedure: (§1) A cohort of animals was prepared in accordance to Example 1 to study the effects of reparixin on the acetylated alpha-tubulin, a pharmacodynamic marker of drug's neuroprotective effect, and on degenerating neurons, as identified by Fluoro-Jade staining.
(§2) vehicle group (n=6) and reparixin group (n=7). Sham mice (implanted with electrodes but not exposed to SE) were used as controls (n=6).
(§3) The animals of the different groups were treated as described in Example 2.
[…] Brains were post-fixed for 90 min in 4% PFA in PBS at 4° C., then transferred to 20% sucrose in PBS overnight at 4° C. and then frozen in n-pentane for 3 min at −43° C. and stored at −80° C. until assay. Serial coronal sections (40 μm) were cut on a cryostat throughout the extension of the hippocampus (from bregma −1.22 to −2.54 mm).
(§4) Sections were processed to measure both degenerating neurons with Fluoro-Jade and acetylated alpha-tubulin (marker of microtubule stability) as described below. Three slices for each animal's brain in each experimental group/marker were matched for anteroposterior level and processed.
Slices were blocked for 30 min at 4° C. in blocking buffer (0.1% Triton-X100, 3% BSA in PBS; Invitrogen) then incubated with primary antibody against acetylated alpha-tubuline 1:2000 (#24610 Abcam) overnight at 4 C. […]

[1] = test system: Fluoro-Jade-positive degenerating neurons; test: Fluoro-Jade staining of degenerating neurons in hippocampus after SE; assay type: in vivo, C57BL6/N male mice; settings: 72 h post-SE
Procedure: as §1, §2, §3
All mice were transcardially perfused 72 h post-SE with ice-cold phosphate buffered saline (PBS, pH 7.4), followed by 4% paraformaldehyde (PFA) in PBS. Brains were post-fixed for 90 min in 4% PFA in PBS at 4° C., then transferred to 20% sucrose in PBS overnight at 4° C. and then frozen in n-pentane for 3 min at −43° C. and stored at −80° C. until assay. Serial coronal sections (40 μm) were cut on a cryostat throughout the extension of the hippocampus (from bregma −1.22 to −2.54 mm).
as §4
Labeling was carried out as previously described (Ravizza et al., 2008). Briefly, sections were dried in ethanol (100%, 75% and 50%) and rehydrated in distilled water. […]

[2] = test system: chronic epileptic mice with established spontaneous seizures; test: Effect of reparixin on established seizures in chronic epileptic mice; assay type: in vivo
Procedure: The objective of this experiment was to assess whether reparixin affects seizure frequency or duration in chronic epileptic mice with established spontaneous seizures. Status epilepticus was induced in 18 mice prepared as described in Example 1a) by amygdala injection of kainic acid and EEG was recorded for 14 days to determine disease onset as described in Example 2. Then, mice were disconnected from EEG and returned to their home cages until day 45 at which time they were again EEG recorded for 14 days to determine their individual baseline of spontaneous seizures. At the end of this period, mice were temporarly disconnected for minipumps implantation. Minipumps (ALZET model 2002; 0.5 μl/h) were filled with Reparixin (7.5/mg/h/kg, n=9) or its vehicle (n=9) according to the manifacturer's instructions and implanted subcutaneously in the back of the mice under general gas anaesthesia (1-3% isoflurane in O2). Upon awakening from anesthesia, mice were returned to their home cages for monitoring the EEG for additional 14 days during treatment. At the end of treatment period (as determined by minipump exhaustion) venous blood was collected from the cheek and plasma was isolated for drug level measurement. Mice were subsequently monitored during a drug wash-out period of 14 days. A group of sham mice (not exposed to SE but handled as experimental mice) were implanted with minipumps filled with vehicle (n=6).

[3] = test system: murine model of acquired epilepsy triggered by de novo status epilepticus; test: Effect of reparixin on onset and development of epilepsy (intra-amygdala kainic acid status epilepticus, EEG recording); assay type: in vivo, C57BL6/N male mice
Procedure: A murine model of acquired epilepsy triggered by de novo status epilepticus was used in the experiments (lori et al, Neurobiol Dis 2017, 99 12-23).
In details, eight week-old C57BL6/N male mice (˜25 g; Charles River, calco, Italy) were used. Mice were maintained in SPF facilities and housed at a constant room temperature (23° c) and relative humidity (60±5%) with free access to food and water and a fixed 12 h light/dark cycle. All experimental procedures were conducted in conformity with institutional guidelines that are in compliance with national (D.L. n.26, G.U. Mar. 4, 2014) and international laws and policies (EEC council directive 86/609, OJ L 358, 1, Dec. 12, 1987, guide for the care and use of laboratory animals, U.S. national research council, 1996), and were reviewed and approved by the intramural ethical committee.
Mice were surgically implanted under general gas anaesthesia (1-3% isoflurane in O2) and stereotaxic guidance. A 23-gauge guide cannula was unilaterally positioned on top of the dura mater for the intra-amygdala injection of kainic acid (KA) (from bregma, mm: nose bar 0; anteroposterior, −0.9; lateral, −3.1) in accordance with lori et al. (2017).
For seizure recording, a nichrome-insulated bipolar depth electrode (60 μm OD) was implanted in the dorsal hippocampus (from bregma, mm: nose bar 0; anteroposterior—1.8, lateral 1.4 and 1.8 below dura mater) contralateral to the injected amygdala and a cortical electrode was placed onto the somatosensory cortex in the ipsilateral hemisphere. Finally, two screw electrodes were positioned over the nasal sinus and the cerebellum, and used as ground and reference electrodes, respectively. Electrodes were connected to a multipin socket and secured to the skull by acrylic dental cement.
Minipumps (Alzet pump 1007D, 100 μ/minipump or Alzet pump 2002, 200 μ/minipump; Charles River, Calco, Italy) filled with reparixin dissolved in a vehicle consisting in sterile saline (NaCl 0.9%) solution (vehicle) (reparixin group) or vehicle (sham control group and vehicle group) were implanted subcutaneously in the back of the mice. Briefly, a small incision was made in the skin between the scapulae and a pocket was formed by spreading apart the connective tissues. After minipump positioning, the skin was carefully sutured to avoid any discomfort to the animal.
One week after surgery, mice were connected to the EEG set up (TWIN EEG recording system connected with a comet AS-40 32/8 amplifier:sampling rate 400 hz, high-pass filter 0.3 hz, low-pass filter 70 hz, sensitivity 2000 my/cm; Grass-telefactor, West Warwick, USA) in order to record an EEG baseline before the induction of status epilepticus (SE). […]
Reparixin, at the dose of 7.5 mg/h/kg (reparixin group), or vehicle (sham and vehicle group) were administered by continuous infusion using osmotic minipumps as described in example 1b).
After 24 hours from infusion, status epilepticus was induced in the vehicle group and reparixin group by amygdal injection of kaininc acid.
In details, kainic acid (KA, 0.3 μg in 0.2 μl; Sigma-Aldrich, S. Louis, USA) was dissolved in […] phosphate-buffered saline (PBS, pH 7.4) and injected into the right basolateral amygdala in freely moving mice using a needle protruding 4.1 mm below the implanted cannula in order to evoke SE. SE was defined by the appearance of continuous spike activity with a frequency>1 Hz intermixed with high amplitude and frequency discharges lasting for at least 5 s, with a frequency of >8 Hz. […]

CC(C)Cc1ccc([C@@H](C)C(=O)NS(C)(=O)=O)cc1 [reparixin, R-(-)-2-(4-isobutylphenyl)propionyl methansulfonamide]
immunohistochemical signal of acetylated alpha-tubulin in the mouse hippocampus (acetylated alpha-tubulin): significantly reduced | mice without Fluoro-Jade positive neurons in CA4 ([1]; vehicle 1 out of 5 without neurodegeneration, p=0.29 by Fisher test): 4 out of 7 | mice without Fluoro-Jade positive neurons in CA1 pyramidal cell layer ([1]; vehicle 5 out of 5 showed neurodegeneration, p<0.05 by Fisher test): 5 out of 7 | average SRS duration ([2]; 7.5 mg/h/kg s.c. minipump for 14 days, n=9): not modified | reduction of the number of spontaneous seizures compared to pre-injection baseline ([2]; 7.5 mg/h/kg s.c. minipump for 14 days, n=9, p<0.05 one-way ANOVA, Tukey's test): about 50% | responders (at least 30% seizure reduction during treatment vs pre-treatment baseline) ([2]; 7.5 mg/h/kg s.c. minipump for 14 days, waterfall plot): 7 out of 9 | number of seizures upon drug discontinuation ([2]; drug wash-out period of 14 days): returned to pre-injection baseline level | onset time of SE ([3]; 7.5 mg/h/kg continuous s.c. minipump infusion started 24 h before kainic acid, vs vehicle group, n=24/group): did not modify | onset of spontaneous seizures (epilepsy onset, Kaplan-Meyer curve) ([3]; 7.5 mg/h/kg minipump for 7 days post-SE, p<0.05 Log-rank test vs vehicle): significant delay | incidence of acute symptomatic seizures during 48 h post-SE ([3]; 7.5 mg/h/kg minipump, all animals exposed to SE, p<0.05 by Fisher's test vs vehicle (62% of mice)): 20 % of mice | number of spontaneous recurrent seizures (SRS) during drug treatment ([3]; 48 h-7 d post-SE, vs vehicle group, p<0.05 Mann-Whitney test): significant reduction | mice that died during epilepsy development ([3]; reparixin group n=9, vehicle group 3 out of 12 died because of severe seizures): 1 out of 9
